Data on 21 compounds can be found in patent US10450356B2, “PRAME derived peptides and immunogenic compositions comprising these” (Academisch Ziekenhuis Leiden H.O.D.N. LUMC, priority 2007, dated 2019).

This experiment deals with T1, 20S proteasomes purified from a B-LCL cell line (immunoproteasomes) (Homo sapiens, UniProt P28062+P28065+P40306).
T1 construct: 20S proteasomes were purified from a B-LCL cell line; endogenous in cells; purified after Groettrup et al. 1995
Kind of experiment: In vitro proteasome mediated cleavage analysis. In kind it is biochemical. More on the design: key to Intact in fragment / Intact Fragment: intact epitope found in digestion fragments: (+), present; (-), not present; key to Processing C-term: generation by proteasome-mediated digestion of fragments containing the correct C-terminus: (++) fragments present for >5%; (+) present for <5%; (-) no fragments containing the C-term. were found. The following applies: for Processing C-term: generation by proteasome-mediated digestion of fragments containing the correct C-terminus: 1 h digestion; for Intact Fragment: intact epitope found in digestion fragments: after 1 h digestion; for C-term. generation: generation of C-terminus of the epitope after 1 h digestion; for Intact in fragment: intact epitope found in digestion fragments after 1 h digestion. The method in brief: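 Immunoproteasome-rich 20S proteasomes from a B-LCL line (high LMP2/7 content by 2-D immunoblot). 27-mer peptides (20 μg) were digested with 1 μg proteasome at 37° C for 1 h, 4 h and 24 h, then stopped with TFA. Fragments were identified by nanoelectrospray Q-TOF MS, with peak intensities giving relative peptide amounts.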

As for `CC(C)C[C@H](NC(=O)[C@@H](NC(=O)[C@H](CCC(N)=O)NC(=O)[C@H](CO)NC(=O)[C@H](Cc1c[nH]cn1)NC(=O)[C@H](CCCNC(=N)N)NC(=O)CNC(=O)[C@H](CC(=O)O)NC(=O)[C@H](Cc1ccccc1)NC(=O)[C@H](C)N)[C@@H](C)O)C(=O)O`, the “Processing C-term: generation by proteasome-mediated digestion of fragments containing the correct C-terminus” value is on record as “+ ((+) present for <5%)”, the “Intact Fragment: intact epitope found in digestion fragments” value (from here on “Intact Fragment: intact epitope found”) is listed as “+”, the C-term. generation result is on record as “+ (low abundant (+) present for <5%)” and the Intact in fragment result is listed as “+”.
Take `CC[C@H](C)[C@H](NC(=O)[C@H](C)N)C(=O)N[C@@H](C)C(=O)N[C@@H](C)C(=O)N[C@@H](CC(C)C)C(=O)N[C@@H](CCC(=O)O)C(=O)N[C@@H](CC(C)C)C(=O)N[C@@H](CC(C)C)C(=O)N1CCC[C@H]1C(=O)N[C@@H](CCCNC(=N)N)C(=O)O`: the “Processing C-term: generation by proteasome-mediated digestion of fragments containing the correct C-terminus” value is recorded as “-” and the “Intact Fragment: intact epitope found” value is reported as “-”.
As for `CC[C@H](C)[C@H](NC(=O)[C@H](C)NC(=O)[C@H](CC(C)C)NC(=O)[C@H](C)N)C(=O)N[C@@H](C)C(=O)N[C@@H](C)C(=O)N[C@@H](CC(C)C)C(=O)N[C@@H](CCC(=O)O)C(=O)N[C@@H](CC(C)C)C(=O)O`, the “Processing C-term: generation by proteasome-mediated digestion of fragments containing the correct C-terminus” value was “-” and the “Intact Fragment: intact epitope found” value was “-”.
Regarding `CC[C@H](C)[C@H](NC(=O)[C@H](C)NC(=O)[C@H](CC(C)C)NC(=O)[C@H](C)N)C(=O)N[C@@H](C)C(=O)N[C@@H](C)C(=O)N[C@@H](CC(C)C)C(=O)N[C@@H](CCC(=O)O)C(=O)N[C@@H](CC(C)C)C(=O)N[C@@H](CC(C)C)C(=O)O`, the “Processing C-term: generation by proteasome-mediated digestion of fragments containing the correct C-terminus” value is “-” and the “Intact Fragment: intact epitope found” value is “-”.
For the compound `CSCC[C@H](NC(=O)[C@H](C)N)C(=O)N[C@H](C(=O)N[C@@H](CCC(N)=O)C(=O)N[C@@H](C)C(=O)N[C@@H](Cc1c[nH]c2ccccc12)C(=O)N1CCC[C@H]1C(=O)N[C@@H](Cc1ccccc1)C(=O)N[C@H](C(=O)N[C@@H](CS)C(=O)O)[C@@H](C)O)C(C)C`, the “Processing C-term: generation by proteasome-mediated digestion of fragments containing the correct C-terminus” value was “-” and the “Intact Fragment: intact epitope found” value is recorded as “-”.
`CC(C)C[C@H](NC(=O)[C@@H](NC(=O)[C@H](CC(=O)O)NC(=O)[C@H](CC(C)C)NC(=O)CNC(=O)[C@H](CC(=O)O)NC(=O)[C@H](CC(C)C)NC(=O)[C@@H](NC(=O)[C@H](C)N)C(C)C)C(C)C)C(=O)O`: the “Processing C-term: generation by proteasome-mediated digestion of fragments containing the correct C-terminus” value is “-” and the “Intact Fragment: intact epitope found” value was “-”.
With `CC(C)C[C@H](NC(=O)[C@H](CC(C)C)NC(=O)[C@@H](NC(=O)[C@H](CC(=O)O)NC(=O)[C@H](CC(C)C)NC(=O)CNC(=O)[C@H](CC(=O)O)NC(=O)[C@H](CC(C)C)NC(=O)[C@@H](NC(=O)[C@H](C)N)C(C)C)C(C)C)C(=O)O`, the “Processing C-term: generation by proteasome-mediated digestion of fragments containing the correct C-terminus” value is reported as “++ ((++) fragments present for >5%)”, the “Intact Fragment: intact epitope found” value is “+”, the C-term. generation entry was “++ (abundant (++) present for >5%)” and the Intact in fragment result was “+”.
Consider `C[C@@H](O)[C@H](NC(=O)[C@H](CCCNC(=N)N)NC(=O)[C@H](CC(=O)O)NC(=O)CNC(=O)[C@H](CS)NC(=O)[C@H](Cc1c[nH]cn1)NC(=O)[C@@H]1CCCN1C(=O)[C@@H](N)CS)C(=O)N[C@@H](Cc1ccccc1)C(=O)N[C@@H](Cc1ccc(O)cc1)C(=O)O`, for which the “Processing C-term: generation by proteasome-mediated digestion of fragments containing the correct C-terminus” value is recorded as “-” and the “Intact Fragment: intact epitope found” value is “-”.
Take `CC(C)C[C@H](NC(=O)[C@H](CC(C)C)NC(=O)[C@H](CO)NC(=O)[C@H](CCC(N)=O)NC(=O)CNC(=O)[C@H](C)NC(=O)[C@H](CC(C)C)NC(=O)[C@@H](N)CCC(=O)O)C(=O)N[C@@H](CCCCN)C(=O)O`: the “Processing C-term: generation by proteasome-mediated digestion of fragments containing the correct C-terminus” value is recorded as “-” and the “Intact Fragment: intact epitope found” value is “-”.
In the case of `CC(C)C[C@H](NC(=O)CN)C(=O)N[C@@H](CC(=O)O)C(=O)N[C@H](C(=O)N[C@@H](CC(C)C)C(=O)N[C@@H](CC(C)C)C(=O)N[C@@H](C)C(=O)N[C@@H](CCC(N)=O)C(=O)N[C@@H](CCC(=O)O)C(=O)N[C@H](C(=O)O)C(C)C)C(C)C`, the “Processing C-term: generation by proteasome-mediated digestion of fragments containing the correct C-terminus” value is “-” and the “Intact Fragment: intact epitope found” value is recorded as “-”.
In the case of `CC(C)C[C@H](NC(=O)[C@H](Cc1c[nH]cn1)NC(=O)[C@H](CC(C)C)NC(=O)[C@@H](N)Cc1c[nH]cn1)C(=O)N[C@@H](CCC(=O)O)C(=O)N[C@H](C(=O)N[C@@H](Cc1ccccc1)C(=O)N[C@@H](CCCCN)C(=O)N[C@@H](C)C(=O)O)[C@@H](C)O`, the “Processing C-term: generation by proteasome-mediated digestion of fragments containing the correct C-terminus” value is “-” and the “Intact Fragment: intact epitope found” value is “-”.
In the case of `CC(C)C[C@H](NC(=O)[C@H](CC(=O)O)NC(=O)[C@H](CC(C)C)NC(=O)[C@@H](NC(=O)[C@H](CCC(N)=O)NC(=O)[C@H](CC(C)C)NC(=O)[C@@H](N)CCCCN)C(C)C)C(=O)N[C@@H](CCCNC(=N)N)C(=O)N[C@@H](CCCCN)C(=O)O`, the “Processing C-term: generation by proteasome-mediated digestion of fragments containing the correct C-terminus” value is listed as “-” and the “Intact Fragment: intact epitope found” value was “-”.
Consider `CSCC[C@H](NC(=O)[C@H](Cc1ccccc1)NC(=O)[C@H](CC(C)C)NC(=O)[C@@H]1CCCN1C(=O)[C@@H]1CCCN1C(=O)[C@H](Cc1ccccc1)NC(=O)[C@@H](N)CC(C)C)C(=O)N[C@@H](C)C(=O)N[C@@H](C)C(=O)N[C@@H](Cc1ccccc1)C(=O)O`, for which the “Processing C-term: generation by proteasome-mediated digestion of fragments containing the correct C-terminus” value was “++ ((++) fragments present for >5%)” and the C-term. generation result is reported as “++ (abundant (++) present for >5%)”.
With `CC(C)C[C@H](NC(=O)[C@@H](N)CC(C)C)C(=O)N[C@@H](C)C(=O)N[C@@H](CCC(N)=O)C(=O)N[C@@H](CCC(=O)O)C(=O)N[C@H](C(=O)N[C@@H](CCCNC(=N)N)C(=O)N1CCC[C@H]1C(=O)N[C@@H](CCCNC(=N)N)C(=O)N[C@@H](CCCNC(=N)N)C(=O)O)C(C)C`, the “Processing C-term: generation by proteasome-mediated digestion of fragments containing the correct C-terminus” value is reported as “-” and the “Intact Fragment: intact epitope found” value is given as “-”.
As for `CC[C@H](C)[C@H](NC(=O)[C@H](C)NC(=O)[C@H](CC(C)C)NC(=O)[C@H](C)NC(=O)[C@H](CCC(=O)O)NC(=O)[C@H](CC(=O)O)NC(=O)[C@H](CCCCN)NC(=O)[C@H](CC(C)C)NC(=O)[C@@H](N)CC(C)C)C(=O)O`, the “Processing C-term: generation by proteasome-mediated digestion of fragments containing the correct C-terminus” value is reported as “++ ((++) fragments present for >5%)”, the “Intact Fragment: intact epitope found” value is recorded as “+”, the C-term. generation entry was “++ (abundant (++) present for >5%)” and the Intact in fragment entry is on record as “+”.
Regarding `CC(C)C[C@H](NC(=O)[C@@H](NC(=O)CNC(=O)[C@H](CC(C)C)NC(=O)[C@@H]1CCCN1C(=O)[C@H](CC(C)C)NC(=O)[C@H](CS)NC(=O)[C@@H](NC(=O)[C@H](Cc1ccccc1)NC(=O)[C@@H]1CCCN1)[C@@H](C)O)C(C)C)C(=O)O`, the “Processing C-term: generation by proteasome-mediated digestion of fragments containing the correct C-terminus” value is reported as “++ ((++) fragments present for >5%)”, the “Intact Fragment: intact epitope found” value is on record as “+”, the C-term. generation result was “++ (abundant (++) present for >5%)” and the Intact in fragment entry was “+”.
Consider `CC[C@H](C)[C@H](NC(=O)[C@H](C)NC(=O)[C@H](CC(C)C)NC(=O)[C@H](C)NC(=O)[C@H](CCC(=O)O)NC(=O)[C@H](CC(=O)O)NC(=O)[C@H](CCCCN)NC(=O)[C@H](CC(C)C)NC(=O)[C@H](CC(C)C)NC(=O)[C@@H](N)CO)C(=O)O`, for which the “Processing C-term: generation by proteasome-mediated digestion of fragments containing the correct C-terminus” value is given as “++ ((++) fragments present for >5%)”, the “Intact Fragment: intact epitope found” value is “+”, the C-term. generation entry is “++ (abundant (++) present for >5%)” and the Intact in fragment result is listed as “+”.
As for `CC(C)C[C@H](NC(=O)CNC(=O)[C@H](CC(=O)O)NC(=O)[C@H](CC(C)C)NC(=O)[C@@H](NC(=O)[C@H](C)NC(=O)[C@H](CCCCN)NC(=O)[C@H](Cc1ccccc1)NC(=O)[C@@H](N)[C@@H](C)O)C(C)C)C(=O)O`, the “Processing C-term: generation by proteasome-mediated digestion of fragments containing the correct C-terminus” value was “-” and the “Intact Fragment: intact epitope found” value is reported as “-”.
With `CC[C@H](C)[C@H](NC(=O)[C@@H]1CCCN1C(=O)[C@H](CCC(=O)O)NC(=O)[C@@H]1CCCN1C(=O)[C@H](CC(=O)O)NC(=O)[C@H](Cc1ccc(O)cc1)NC(=O)[C@H](Cc1ccccc1)NC(=O)[C@@H](N)[C@@H](C)O)C(=O)N[C@@H](CC(C)C)C(=O)O`, the “Processing C-term: generation by proteasome-mediated digestion of fragments containing the correct C-terminus” value is listed as “-” and the “Intact Fragment: intact epitope found” value is recorded as “-”.
In the case of `CC(C)C[C@H](NC(=O)CNC(=O)[C@H](CC(=O)O)NC(=O)[C@H](CC(C)C)NC(=O)[C@@H](N)C(C)C)C(=O)N[C@@H](CC(=O)O)C(=O)N[C@H](C(=O)N[C@@H](CC(C)C)C(=O)N[C@@H](CC(C)C)C(=O)N[C@@H](C)C(=O)O)C(C)C`, the “Processing C-term: generation by proteasome-mediated digestion of fragments containing the correct C-terminus” value is “-” and the “Intact Fragment: intact epitope found” value is “-”.
Regarding `CSCC[C@H](NC(=O)[C@H](CC(C)C)NC(=O)[C@@H](N)C(C)C)C(=O)N[C@@H](CCCCN)C(=O)NCC(=O)N[C@@H](CCC(N)=O)C(=O)N[C@@H](Cc1c[nH]cn1)C(=O)N[C@@H](CC(C)C)C(=O)N[C@@H](Cc1c[nH]cn1)C(=O)N[C@@H](CC(C)C)C(=O)O`, the “Processing C-term: generation by proteasome-mediated digestion of fragments containing the correct C-terminus” value was “-” and the “Intact Fragment: intact epitope found” value is “-”.
